Assays:
Assay in all cases: relative viability (nuclei count vs DMSO), 5 days (fraction); higher = more cells survive
Vismodegib + Alpelisib = compound: CS(=O)(=O)c1ccc(C(=O)Nc2ccc(Cl)c(-c3ccccn3)c2)c(Cl)c1 [Vismodegib] + Cc1nc(NC(=O)N2CCC[C@H]2C(N)=O)sc1-c1ccnc(C(C)(C)C(F)(F)F)c1 [Alpelisib] (partner 2 µM)
How it was run: (§1)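 The day after seeding in 1536-well plates, lung cancer cell lines were treated by pin tool with a single drug, or with a fixed anchor-drug dose together with five library-drug doses (not always all listed) in √10 steps. After 5 days, a combined fix-and-stain solution (final 0.05% Triton X-100, 1% formaldehyde, 1 ug/ml Hoechst) was added. Nuclei counted on 4× images gave relative viability as treated counts over vehicle counts, reported as the median of duplicate plates.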

Vismodegib + Decitabine = compound: CS(=O)(=O)c1ccc(C(=O)Nc2ccc(Cl)c(-c3ccccn3)c2)c(Cl)c1 [Vismodegib] + Nc1ncn([C@H]2C[C@H](O)[C@@H](CO)O2)c(=O)n1 [Decitabine] (partner 2 µM)
How it was run: as §1

Ruxolitinib + Vorinostat = compound: N#CC[C@H](C1CCCC1)n1cc(-c2ncnc3[nH]ccc23)cn1 [Ruxolitinib] + O=C(CCCCCCC(=O)Nc1ccccc1)NO [Vorinostat] (partner 1 µM)
How it was run: as §1

[1] = compound: N#CC[C@H](C1CCCC1)n1cc(-c2ncnc3[nH]ccc23)cn1 [Ruxolitinib] + CC(=O)c1c(C)c2cnc(Nc3ccc(N4CCNCC4)cn3)nc2n(C2CCCC2)c1=O [Palbociclib] (partner 0.5 µM)
How it was run: as §1

Cell Line | relative viability (Vismodegib + Alpelisib; first compound 0.08 µM) | relative viability (Vismodegib + Alpelisib; first compound 0.253 µM) | relative viability (Vismodegib + Alpelisib; first compound 0.8 µM) | relative viability (Vismodegib + Alpelisib; first compound 2.53 µM) | relative viability (Vismodegib + Alpelisib; first compound 8 µM) | relative viability (Vismodegib + Decitabine; first compound 0.08 µM) | relative viability (Vismodegib + Decitabine; first compound 0.253 µM) | relative viability (Vismodegib + Decitabine; first compound 0.8 µM) | relative viability (Vismodegib + Decitabine; first compound 2.53 µM) | relative viability (Vismodegib + Decitabine; first compound 8 µM) | relative viability (Ruxolitinib + Vorinostat; first compound 0.08 µM) | relative viability (Ruxolitinib + Vorinostat; first compound 0.253 µM) | relative viability (Ruxolitinib + Vorinostat; first compound 0.8 µM) | relative viability (Ruxolitinib + Vorinostat; first compound 2.53 µM) | relative viability (Ruxolitinib + Vorinostat; first compound 8 µM) | relative viability ([1]; first compound 0.08 µM) | relative viability ([1]; first compound 0.253 µM) | relative viability ([1]; first compound 0.8 µM) | relative viability ([1]; first compound 2.53 µM) | relative viability ([1]; first compound 8 µM)
NCI-H1355 | 0.902 | 0.882 | 0.838 | 0.853 | 0.787 | 0.354 | 0.333 | 0.347 | 0.372 | 0.364 | 0.69 | 0.564 | 0.691 | 0.6 | 0.536 | 0.416 | 0.371 | 0.429 | 0.402 | 0.368
NCI-H460 | 0.542 | 0.495 | 0.552 | 0.434 | 0.435 | 0.603 | 0.467 | 0.544 | 0.486 | 0.54 | 0.847 | 0.774 | 0.819 | 0.599 | 0.516 | 0.173 | 0.159 | 0.165 | 0.0961 | 0.155
NCI-H2126 | 0.681 | 0.734 | 0.782 | 0.686 | 0.706 | 0.598 | 0.544 | 0.592 | 0.549 | 0.611 | 0.771 | 0.755 | 0.853 | 0.843 | 0.847 | 0.382 | 0.333 | 0.371 | 0.363 | 0.363
LCLC-103H | 1.05 | 0.973 | 0.908 | 0.978 | 0.947 | 0.74 | 0.755 | 0.768 | 0.726 | 0.735 | 0.89 | 0.795 | 0.806 | 0.735 | 0.675 | 0.495 | 0.467 | 0.468 | 0.426 | 0.394
COR-L 105 | 0.832 | 0.882 | 0.847 | 0.839 | 0.868 | 0.589 | 0.593 | 0.676 | 0.708 | 0.627 |  | 0.721 | 0.785 | 0.488 | 0.615 |  | 0.386 | 0.387 | 0.392 | 0.365
H3255 | 0.75 | 0.676 | 0.764 | 0.752 | 0.543 | 0.569 | 0.567 | 0.578 | 0.604 | 0.562 |  | 0.9 | 0.892 | 0.791 | 0.382 | 0.307 | 0.297 | 0.315 | 0.266 | 0.263
NCI-H441 | 0.647 | 0.633 | 0.829 | 0.824 | 0.745 | 0.23 |  | 0.235 | 0.211 | 0.238 | 0.648 | 0.571 | 0.907 | 0.689 | 0.747 | 0.218 | 0.206 | 0.302 | 0.241 | 0.309
NCI-H2347 | 0.966 | 0.994 | 0.91 | 1.02 | 1.1 | 0.645 | 0.603 | 0.593 | 0.646 | 0.612 | 0.68 | 0.546 | 0.568 | 0.566 | 0.622 | 0.425 | 0.395 | 0.42 | 0.43 | 0.478
HCC-827 | 0.982 | 0.993 | 0.972 | 0.998 | 0.949 | 0.326 | 0.333 | 0.34 | 0.302 | 0.353 |  | 0.871 | 0.767 | 0.751 | 0.84 |  | 0.275 | 0.408 | 0.366 | 0.411
NCI-H520 | 0.917 | 0.938 | 0.988 | 0.896 | 0.987 | 0.491 | 0.445 | 0.572 | 0.459 | 0.499 | 0.758 | 0.858 | 0.752 | 0.844 | 0.654 | 0.243 | 0.218 | 0.251 | 0.204 | 0.258
A-427 | 1.02 | 1.04 | 0.965 | 1.09 | 1.1 | 0.515 | 0.569 | 0.546 | 0.499 | 0.582 | 0.906 | 0.879 | 0.9 | 0.974 | 0.841 | 0.557 | 0.516 | 0.556 | 0.499 | 0.464
NCI-H650 | 1.1 | 1.14 | 1.14 | 1.04 | 1.17 | 0.33 | 0.314 | 0.329 | 0.344 | 0.298 | 0.532 | 0.423 | 0.406 | 0.44 | 0.429 | 0.325 | 0.339 | 0.347 | 0.317 | 0.321
NCI-H727 | 0.601 | 0.563 | 0.555 | 0.529 | 0.611 | 0.9 | 1.01 | 0.857 | 0.837 | 0.9 | 1.2 | 1.19 | 1.4 | 1.12 | 1.49 | 0.539 | 0.676 | 0.586 | 0.611 | 0.713
ABC-1 | 0.994 | 1.13 | 1.08 | 0.83 | 0.949 | 1.06 | 1.01 | 0.999 | 1.2 | 1.01 |  | 1.18 | 1.4 | 0.825 | 0.907 |  | 0.831 | 0.652 | 0.808 | 0.754
NCI-H1793 |  | 0.642 | 0.77 | 0.809 | 0.671 |  | 0.475 | 0.58 | 0.476 | 0.579 | 0.832 | 0.87 | 0.823 | 0.877 | 0.872 | 0.291 | 0.287 | 0.307 | 0.319 | 0.335
NCI-H23 | 0.801 | 0.588 | 0.672 | 0.652 | 0.853 | 0.362 | 0.321 | 0.329 | 0.323 | 0.358 | 0.668 | 0.628 | 0.763 | 0.642 | 0.43 | 0.538 | 0.485 | 0.604 | 0.426 | 0.34
SK-LU-1 | 1.07 | 0.987 | 1.07 | 0.894 | 1.06 | 0.619 | 0.639 | 0.588 | 0.618 | 0.607 | 0.763 | 0.856 | 0.747 | 0.805 | 0.53 | 0.426 | 0.416 | 0.421 | 0.374 | 0.336

— the supplement of paper PMC10307832
